Experimental data from publication PMC7894572 (Chemmedchem, 2020).
Read-outs that look alike come from different tables or passages of the source.

Key:
SARS‐CoV PL^pro = SARS‐CoV PL^pro (Severe acute respiratory syndrome coronavirus, UniProt P0C6X7); experiment: biochemical; type: biochemical
SARS‐CoV‐2 PL^pro = SARS‐CoV‐2 PL^pro (Severe acute respiratory syndrome coronavirus 2, UniProt P0DTD1); experiment: biochemical; type: biochemical
SARS‐CoV‐2 = experiment: microbe, parasite or virus in culture; type: cell-based; details: for EC50: Severe acute respiratory syndrome coronavirus 2, Vero C1008, 24 h, read-out: EC50 inhibition of SARS‐CoV‐2 replication
in vitro = details: African green monkey
[1] = read-out: Percentage inhibition SARS‐CoV‐2 PL^pro
[2] = read-out: Inhibition SARS‐CoV PL^pro, class (Table 1)
[3] = read-out: Inhibition SARS‐CoV‐2 PL^pro, class (Table 1)

Which “Inhibition of SARS‐CoV PL^pro, in words” value (SARS‐CoV PL^pro) does the source give for “2‐Methyl‐N‐(naphth‐1‐ylethyl]benzamide [Compound 4 b]” here?
The value was “inactive”.

And the “Inhibition SARS‐CoV PL^pro, class (Table 1)” value (SARS‐CoV PL^pro; 100 µM)?
Its value is “n.a.^[b] (key: Compounds with inhibitory effect less than 50 % at 100 μM compared to DMSO were labelled as not active (n.a.))”.

Which IC50 (SARS‐CoV‐2 PL^pro) does the source give for `Cc1ccccc1C(=O)N[C@H](C)c1cccc2ccccc12` [Compound 2 a, 2‐Methyl‐N‐[(1R)‐naphth‐1‐ylethyl]benzamide, reference compound] here?
The IC50 was 6.9 ± 0.7 µM.

Which results are given for `C[C@@H](NC(=O)c1ccccc1)c1cccc2ccccc12` [Compound 2 c, N ‐[(1R)‐1‐Naphth‐1‐ylethyl]benzamide]?
inhibition at 100 µM (SARS‐CoV‐2 PL^pro; [1]): 60%; melting point: 195 °C; IC50 (SARS‐CoV PL^pro): 62 ± 5 µM

Which inhibition at 100 µM (SARS‐CoV PL^pro; [2]) does the source give for `C[C@@H](NC(=O)c1ccccc1C(F)(F)F)c1cccc2ccccc12` [Compound 2 d, N ‐[(1R)‐1‐Naphth‐1‐ylethyl]‐2‐(trifluormethyl)benzamide] here?
Its inhibition at 100 µM is under 50%.

Which results are given for `C[C@@H](NC(=O)c1ccccc1C#N)c1cccc2ccccc12` [Compound 2 e, (R)‐2‐Cyano‐N‐(1‐(naphth‐1‐yl)ethyl)benzamide]?
inhibition at 100 µM (SARS‐CoV‐2 PL^pro; [3]): < 50%; melting point: 181 °C; IC50 (SARS‐CoV PL^pro): 18 ± 2 µM

Which inhibition at 100 µM (SARS‐CoV‐2 PL^pro; [1]) does the source give for `C[C@@H](NC(=O)c1ccccc1F)c1cccc2ccccc12` [Compound 2 f, 2‐Fluor‐N‐[(1R)‐1‐naphth‐1‐ylethyl]benzamide] here?
The inhibition at 100 µM was 67%.

What about the melting point of the same compound?
Its melting point is 135 °C.

And the IC50 (SARS‐CoV PL^pro)?
The IC50 was 9 ± 1 µM.

What does the source list for `C[C@@H](NC(=O)c1ccccc1Br)c1cccc2ccccc12` [Compound 2 g, 2‐Bromo‐N‐[(1R)‐1‐naphth‐1‐ylethyl]benzamide]?
inhibition at 100 µM (SARS‐CoV‐2 PL^pro; [1]): 73%; melting point: 153 °C; IC50 (SARS‐CoV PL^pro): 11 ± 2 µM

Which results are given for `C[C@@H](NC(=O)c1ccccc1I)c1cccc2ccccc12` [Compound 2 h, 2‐Iodo‐N‐[(1R)‐1‐naphth‐1‐ylethyl]benzamide]?
inhibition at 100 µM (SARS‐CoV‐2 PL^pro; [3]): < 50%; melting point: 161 °C; IC50 (SARS‐CoV PL^pro): 25 ± 3 µM

Which melting point does the source give for `C[C@@H](NC(=O)C1CCCCC1)c1cccc2ccccc12` [Compound 2 j, N ‐[(1R)‐1‐Naphth‐1‐ylethyl]cyclohexanecarboxamide] here?
Its melting point is 170 °C.

And the “Inhibition of SARS‐CoV PL^pro, in words” value (SARS‐CoV PL^pro)?
The value was “inactive”.

What about the inhibition at 100 µM (SARS‐CoV PL^pro; [2]) of the same compound?
The inhibition at 100 µM was under 50%.

With `C[C@@H](NC(=O)C(C)(C)C)c1cccc2ccccc12` [Compound 2 k] as the compound, how does the melting point read?
Its melting point is 131 °C.

What about the “Inhibition of SARS‐CoV PL^pro, in words” value (SARS‐CoV PL^pro) of the same compound?
Its value is “inactive”.

What about the inhibition at 100 µM (SARS‐CoV PL^pro; [2]) of the same compound?
Its inhibition at 100 µM is under 50%.

What does the source list for `C[C@@H](NC(=O)Cc1ccccc1)c1cccc2ccccc12` [Compound 2 l, N ‐[(1R)‐1‐Naphth‐1‐ylethyl]‐2‐phenylacetamid]?
melting point: 130 °C; inhibition at 100 µM (SARS‐CoV PL^pro; read-out: Percentage inhibition SARS‐CoV PL^pro): 57%

What does the source list for `C[C@@H](NC(=O)C(c1ccccc1)c1ccccc1)c1cccc2ccccc12` [Compound 2 m, (R)‐N‐(1‐(naphthalen‐1‐yl)ethyl)‐2,2‐diphenylacetamide]?
melting point: 152 °C; Inhibition of SARS‐CoV PL^pro, in words (SARS‐CoV PL^pro): no inhibition; inhibition at 100 µM (SARS‐CoV PL^pro; [2]): < 50%

What does the source list for `Cc1ccsc1C(=O)N[C@H](C)c1cccc2ccccc12` [Compound 2 n, 3‐Methyl‐N‐[(1R)‐1‐naphth‐1‐ylethyl]thiophene‐2‐carboxamide]?
SI (selectivity index) (SARS‐CoV‐2): >105; EC50 (SARS‐CoV‐2): 4.74 ± 1.35 µM; IC50 (SARS‐CoV‐2 PL^pro): 42 ± 6 µM; IC50 (SARS‐CoV PL^pro): 14 ± 1 µM; CC50 (in vitro): > 500 µM

For `Cc1cc(NC(=O)OC(C)(C)C)ccc1C(=O)N[C@H](C)c1cccc2ccccc12` [Compound 2 o, (R)‐tert‐Butyl(3‐Methyl‐4‐((1‐(naphth‐1‐yl)ethyl)carbamoyl)phenyl)carbamate], which IC50 (SARS‐CoV PL^pro) is on record?
Its IC50 is 1.6 ± 0.3 µM.

Which “SI (selectivity index)” value (SARS‐CoV‐2) does the source give for `Cc1cc(N)ccc1C(=O)N[C@H](C)c1cccc2ccccc12.Cl` [Compound 2 p, (R)‐4‐Amino‐2‐methyl‐N‐[1‐(naphth‐1‐yl)ethyl]benzamide hydrochloride] here?
Its value is over 31.7.

What about the EC50 (SARS‐CoV‐2) of the same compound?
The EC50 was 15.8 ± 1.59 µM.

And the IC50 (SARS‐CoV‐2 PL^pro)?
The IC50 was 7.5 ± 0.6 µM.

What about the melting point of the same compound?
The melting point was 231 °C.

What about the CC50 (in vitro) of the same compound?
The CC50 was over 500 µM.

For `Cc1ccc(NC(=O)OC(C)(C)C)cc1C(=O)N[C@H](C)c1cccc2ccccc12` [Compound 2 q, (R)‐tert‐Butyl (4‐Methyl‐3‐((1‐(naphth‐1‐yl)ethyl)carbamoyl)phenyl) carbamate], which IC50 (SARS‐CoV PL^pro) is on record?
The IC50 was 4.6 ± 0.4 µM.

Which IC50 (SARS‐CoV‐2 PL^pro) does the source give for `Cc1ccc(N(C)C)cc1C(=O)N[C@H](C)c1cccc2ccccc12` [Compound 2 r, (R)‐5‐(Dimethylamino)‐2‐methyl‐N‐[1‐(naphth‐1‐yl)ethyl]benzamide] here?
The IC50 was 10 ± 2 µM.

What about the IC50 (SARS‐CoV PL^pro) of the same compound?
The IC50 was 4 ± 0.2 µM.

What does the source list for `Cc1cc(NS(C)(=O)=O)ccc1C(=O)N[C@H](C)c1cccc2ccccc12` [Compound 2 s, 2‐Methyl‐4‐[(methylsulfonyl)amino]‐N‐[(1R)‐1‐naphth‐1‐ylethyl]benzamide]?
IC50 (SARS‐CoV‐2 PL^pro): 10 ± 1 µM; IC50 (SARS‐CoV PL^pro): 4.8 ± 0.3 µM

Which inhibition at 100 µM (SARS‐CoV‐2 PL^pro; [1]) does the source give for `CNS(=O)(=O)c1ccc(C)c(C(=O)N[C@H](C)c2cccc3ccccc23)c1` [Compound 2 t, 2‐Methyl‐5‐(methylsulfamoyl)‐N‐[(1R)‐1‐naphth‐1‐ylethyl]benzamide] here?
The inhibition at 100 µM was 87%.

And the melting point?
The melting point was 184 °C.

What about the IC50 (SARS‐CoV PL^pro) of the same compound?
The IC50 was 4 ± 0.3 µM.
